Assays:
[1] = target: T1, recombinant full-length P1R (Homo sapiens, UniProt Q03431); assay: cAMP stimulation in HKRK-B28 cells; format: cell-based; settings: at 1×10^−6 M, percent of maximum response of PTH(1-34)
T1 construct: expressed in transfected cells
T1 sequence (Q03431 27-593): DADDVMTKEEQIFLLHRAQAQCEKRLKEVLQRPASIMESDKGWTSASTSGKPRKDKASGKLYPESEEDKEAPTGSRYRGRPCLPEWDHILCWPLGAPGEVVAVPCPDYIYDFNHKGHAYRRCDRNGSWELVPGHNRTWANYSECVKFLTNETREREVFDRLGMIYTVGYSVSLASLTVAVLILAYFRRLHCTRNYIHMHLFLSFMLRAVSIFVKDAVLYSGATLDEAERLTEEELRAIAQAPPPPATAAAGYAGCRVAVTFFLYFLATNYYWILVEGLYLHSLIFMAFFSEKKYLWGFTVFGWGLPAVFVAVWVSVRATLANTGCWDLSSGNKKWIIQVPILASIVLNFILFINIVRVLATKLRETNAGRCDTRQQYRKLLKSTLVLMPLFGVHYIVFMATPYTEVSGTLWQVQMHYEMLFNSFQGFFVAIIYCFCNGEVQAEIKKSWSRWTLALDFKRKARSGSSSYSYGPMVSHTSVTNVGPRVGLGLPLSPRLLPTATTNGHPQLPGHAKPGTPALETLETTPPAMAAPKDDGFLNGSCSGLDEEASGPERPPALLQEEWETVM
Protocol: (§1) Cell Culture. The cell line HKRK-B28 (Takasu, H., et al., J. Bone Miner. Res. 14:11-20 (1999)) was derived from the porcine kidney cell line, LLC-PK1 by stable transfection with plasmid DNA encoding the full-length P1R and expresses ˜280,000 receptors per cell. These cells, as well as COS-7 cells and SaOS-2-B10 cells, were cultured at […] in T-75 flasks ([…]) in Dulbecco's modified Eagle's medium (DMEM) supplemented with fetal bovine serum (10%), penicillin G (20 units/ml), streptomycin sulfate (20 μg/ml) and amphotericin B (0.05 μg/ml) in a humidified atmosphere containing 5% CO2. Stock solutions of EGTA/trypsin and antibiotics were from GIBCO; fetal bovine serum was from Hyclone Laboratories (Logan, Utah). COS-7 cells sub-cultured in 24-well plates were transfected with plasmid DNA (200 ng per well) encoding the wild-type human P1R or truncated human P1R deleted for residues (24-181) (Shimizu, M., et al., J. Biol. Chem. 275:21836-21843 (2000)) that was purified by cesium chloride/ethidium bromide density gradient centrifugation, and FuGENE 6 transfection reagent (Roche Indianapolis Ind.) according to the manufacturer's recommended procedure. All cells, in 24-well plates, were treated with fresh media and shifted to 33° C. for 12 to 24 h prior to assay.
(§2) cAMP Stimulation. Stimulation of cells with peptide analogs was performed in 24-well plates. Cells were rinsed with 0.5 mL of binding buffer (50 mM Tris-HCl, 100 mM NaCl, 5 mM KCl, 2 mM CaCl2, 5% heat-inactivated horse serum, 0.5% fetal bovine serum, adjusted to pH 7.5 with HCl) and treated with 200 μL of cAMP assay buffer (Delbecco's modified Eagle's medium containing 2 mM 3-isobutyl-1-methylxanthine, 1 mg/mL bovine serum albumin, 35 mM Hepes-NaOH, pH 7.4) and 100 μL of binding buffer containing varying amounts of peptide analog (final volume=300 μL). The medium was removed after incubation for 30 to 60 minutes at room temperature, and the cells were frozen on dry ice, lysed with 0.5 mL 50 mM HCl, and refrozen ([…]). The cAMP content of the diluted lysate was determined by radioimmunoassay. The EC50 response values were calculated using nonlinear regression (see below).
Data Calculation. Calculations were performed using Microsoft® Excel. Nonlinear regression analyses of binding and cAMP dose-response data were performed using the four-parameter equation: yp=Min+[(Max−Min)/(1+(IC50/x)^slope)]. The Excel Solver function was utilized for parameter optimization, as described previously (Carter, P. H., et al., Endocrinology 140: 4972-4981 (1999); Bowen, W. P., and Jerman, J. C., Trends in Pharmacol. Sci. 16: 413-417 (1995)). Differences between paired data sets were statistically evaluated using a one-tailed Student's t-test, assuming unequal variances for the two sets.
The effects of installing a direct covalent linkage between the side chains of the residues at positions 6 and 10 on PTH analog function were also assessed. To do this, paired Glu^6/Lys^10 or Lys^6/Glu^10 substitutions were introduced into an otherwise non-constrained PTH(1-14) analog scaffold AlaValAlaGluIleGln LeuMetHisGlnHarAlaLysTrp-amide (SEQ. ID. NO. 11) and formed an amide bond between the carboxylate side chain group of the introduced glutamate residue and the amino side chain group of the introduced lysine residue. For controls, a portion of each Glu/Lys- or Lys/Glu-substituted PTH(1-14) analog was preserved in the non-bridged form. The four peptides: [Glu^6, Lys^10]PTH(1-14)(linear)(SEQ. ID. NO. 24), [(Glu^6,Lys^10)lac.]PTH(1-14) cyclized via a 6-10 lactam bridge)(SEQ. ID. NO. 3), [Lys^6, Glu^10]PTH(1-14)(SEQ. ID. NO. 25), and [(Lys^6, Glu^10)lac.]PTH(1-14)(SEQ. ID. NO. 26) were first compared at a single dose of 10 μM for the capacity to stimulate cAMP formulation in HKRK-B28 cells, an LLC-PK1-derived cell line that expresses the recombinant full-length P1R at a moderate level (˜280,000 receptors per cell). […]

wild-type human P1R = target: T2, wild-type human P1R (Homo sapiens, UniProt Q03431); assay: cAMP stimulation in COS-7 cells transiently transfected with P1R-WT; format: cell-based; settings: at 1×10^−6M, percent of maximum response of PTH(1-34) on P1R-WT
T2 construct: expressed in transfected cells; host or cells: COS-7 (transient transfection, FuGENE 6)
T2 sequence (Q03431 27-593): T1 sequence (Q03431 27-593)
Protocol: as §1
cAMP Stimulation. Stimulation of cells with peptide analogs was performed in 24-well plates. […] The cAMP content of the diluted lysate was determined by radioimmunoassay. The EC50 response values were calculated using nonlinear regression (see below).
Data Calculation. […] Differences between paired data sets were statistically evaluated using a one-tailed Student's t-test, assuming unequal variances for the two sets.
(§3) The peptide PTH(1-34)([Tyr^34]hPTH(1-34)NH2)(SEQ. ID. NO. 11) and analogs containing the indicated residues at positions 6 and/or 10 were evaluated for the capacity to stimulate cAMP accumulation in COS-7 cells transiently transfected with either the wild-type P1R(P1R-WT) or P1R-DelNt. […]

[2] = target: T3, P1R-DelNt (truncated human P1R deleted for residues 24-181) (Homo sapiens, UniProt Q03431); assay: cAMP stimulation in COS-7 cells transiently transfected with P1R-DelNt; format: cell-based; settings: for Emax: COS-7, at 1×10^−5, percent of maximum response of PTH(1-34) on P1R-WT
T3 construct: expressed in transfected cells; host or cells: COS-7 (transient transfection, FuGENE 6)
T3 sequence (Q03431 with tags, fused parts or gaps limits assumed): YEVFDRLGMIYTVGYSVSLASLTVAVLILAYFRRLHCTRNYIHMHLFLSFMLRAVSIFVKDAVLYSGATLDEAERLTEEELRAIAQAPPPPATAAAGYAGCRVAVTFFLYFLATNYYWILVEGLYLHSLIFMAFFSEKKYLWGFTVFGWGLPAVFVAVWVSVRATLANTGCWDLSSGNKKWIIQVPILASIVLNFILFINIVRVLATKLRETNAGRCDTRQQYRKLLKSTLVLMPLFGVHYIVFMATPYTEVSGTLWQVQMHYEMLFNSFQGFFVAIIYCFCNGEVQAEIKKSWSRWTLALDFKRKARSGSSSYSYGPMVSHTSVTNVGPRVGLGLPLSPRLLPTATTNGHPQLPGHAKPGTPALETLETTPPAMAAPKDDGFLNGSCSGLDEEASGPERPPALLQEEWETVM
Protocol: as §1, §2
Data Calculation. Calculations were performed using Microsoft® Excel. […] Differences between paired data sets were statistically evaluated using a one-tailed Student's t-test, assuming unequal variances for the two sets.
as §3

P1R = target: T4, P1R (Homo sapiens, UniProt Q03431); settings: cAMP-signaling, literature (Luck et al. 1999); cited from earlier work
T4 construct: expressed in transfected cells
T4 sequence (Q03431 27-593): T1 sequence (Q03431 27-593)

Substance | Emax at 1 µM [1] [%] | Emax at 1 µM (wild-type human P1R) [%] | Emax [2] [%] | cAMP-signaling potency (in words) ([2]; COS-7 cells expressing P1R-DelNt) | EC50 (P1R) [nM]
H-SVSEIALMHALGKHLNSMERVEWLRKKLQDVHNY-NH2 [[Ala^6,10]PTH(1-34)] | 107 ± 8 | 121 ± 7 | 44 ± 2 | as potent as PTH(1-34) | –
H-SVSEIALMHNLGKHLNSMERVEWLRKKLQDVHNY-NH2 [[Ala^6]PTH(1-34)] | 105 ± 10 | 104 ± 2 | 4.5 ± 0.9 | – | –
H-SVSEIQLMHALGKHLNSMERVEWLRKKLQDVHNY-NH2 [[Ala^10]PTH(1-34)] | 106 ± 7 | 96 ± 4 | 46 ± 2 | – | –
PTH(1-34): first 34 amino acids of PTH, literature data | – | – | – | – | ~2

Source: patent US7521528B2, “Conformationally constrained parathyroid hormone (PTH) analogs with lactam bridges” (The General Hospital Corporation, priority 2003, dated 2009)
